Like-named read-outs stand apart in the source and are kept apart here. Marks after values point to notes of the source that are not given here.
Columns and labels:
[1] = biological target: T1, CYP3A4 (Homo sapiens, UniProt P08684); conditions: cited from earlier work
[2] = Adult sildenafil/DMS PBPK population simulations; design: species or system human
[3] = with vs without ritonavir; day 8; cited from earlier work
[4] = test system: plasma protein (AAG); conditions: cited from earlier work; for fu, predominant plasma binding protein: AAG, ref [15],[16]
[5] = cited from earlier work; for DMS AUC Observed / Sildenafil AUC Observed: geometric mean
[6] = biological target: T2, CYP3A5 (Homo sapiens, UniProt P20815); conditions: cited from earlier work
T2 sequence (P20815 whole entry): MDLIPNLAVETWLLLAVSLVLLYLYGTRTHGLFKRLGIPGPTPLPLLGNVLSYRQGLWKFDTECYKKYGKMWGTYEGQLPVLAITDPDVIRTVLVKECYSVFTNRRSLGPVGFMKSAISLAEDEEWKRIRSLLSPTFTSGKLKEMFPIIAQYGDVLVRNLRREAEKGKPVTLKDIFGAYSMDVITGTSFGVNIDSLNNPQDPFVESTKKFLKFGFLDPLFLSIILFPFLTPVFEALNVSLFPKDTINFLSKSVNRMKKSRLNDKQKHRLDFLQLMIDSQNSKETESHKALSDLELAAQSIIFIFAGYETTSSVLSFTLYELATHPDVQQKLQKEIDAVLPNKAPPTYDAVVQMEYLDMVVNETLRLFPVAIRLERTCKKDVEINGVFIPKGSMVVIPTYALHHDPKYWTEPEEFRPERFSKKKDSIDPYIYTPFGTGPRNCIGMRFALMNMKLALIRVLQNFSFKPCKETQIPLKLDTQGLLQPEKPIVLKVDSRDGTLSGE

[7] = biological target: T3, CYP3A7 (Homo sapiens, UniProt P24462); conditions: ref [18], cited from earlier work
T3 sequence (P24462 whole entry): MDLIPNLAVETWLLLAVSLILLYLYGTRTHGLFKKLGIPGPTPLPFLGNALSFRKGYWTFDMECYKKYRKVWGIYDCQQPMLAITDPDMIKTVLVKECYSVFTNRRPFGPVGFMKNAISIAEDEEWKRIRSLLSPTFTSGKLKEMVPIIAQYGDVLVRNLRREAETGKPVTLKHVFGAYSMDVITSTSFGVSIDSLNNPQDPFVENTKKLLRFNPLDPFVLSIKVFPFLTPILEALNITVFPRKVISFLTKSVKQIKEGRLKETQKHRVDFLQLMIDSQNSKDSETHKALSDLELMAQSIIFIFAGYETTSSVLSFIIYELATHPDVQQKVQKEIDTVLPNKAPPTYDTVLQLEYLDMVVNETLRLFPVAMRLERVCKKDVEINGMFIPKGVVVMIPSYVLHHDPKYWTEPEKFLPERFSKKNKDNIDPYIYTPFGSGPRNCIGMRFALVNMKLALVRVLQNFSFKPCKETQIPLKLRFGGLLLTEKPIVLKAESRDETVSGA

[8] = ref [46]; cited from earlier work
[9] = biological target: T1, CYP3A4; assay: Fluconazole inhibition of 6β-hydroxytestosterone formation, recombinant CYP3A4; type: biochemical
[10] = biological target: T2, CYP3A5; assay: Fluconazole inhibition of 6β-hydroxytestosterone formation, recombinant CYP3A5; type: biochemical
[11] = biological target: T3, CYP3A7; assay: Fluconazole inhibition of 6β-hydroxytestosterone formation, recombinant CYP3A7; type: biochemical
[12] = test system: phosphodiesterase type 5; conditions: ref [37], cited from earlier work
[13] = children 1 to 17 years; low dose 10 mg in children > 20 kg; ref [24]; cited from earlier work
[14] = test system: CYP3A4/5/7; conditions: read-out: KM CYP3A4/5/7 sink; remainder of sildenafil metabolites; fixed; ref [27]; cited from earlier work
[15] = PopPK, cited from earlier work
[16] = adults with pulmonary arterial hypertension; ref [44]; cited from earlier work
[17] = test system: CYP2C9; conditions: DMS formation, ref [12], cited from earlier work
[18] = cited from earlier work; for sildenafil clearance (CL): 36 term neonates, i.v. sildenafil; for Sildenafil CL Observed / Sildenafil Vss Observed: PopPK typical value scaled to 70 kg

T1 sequence (P08684 2-503 limits assumed): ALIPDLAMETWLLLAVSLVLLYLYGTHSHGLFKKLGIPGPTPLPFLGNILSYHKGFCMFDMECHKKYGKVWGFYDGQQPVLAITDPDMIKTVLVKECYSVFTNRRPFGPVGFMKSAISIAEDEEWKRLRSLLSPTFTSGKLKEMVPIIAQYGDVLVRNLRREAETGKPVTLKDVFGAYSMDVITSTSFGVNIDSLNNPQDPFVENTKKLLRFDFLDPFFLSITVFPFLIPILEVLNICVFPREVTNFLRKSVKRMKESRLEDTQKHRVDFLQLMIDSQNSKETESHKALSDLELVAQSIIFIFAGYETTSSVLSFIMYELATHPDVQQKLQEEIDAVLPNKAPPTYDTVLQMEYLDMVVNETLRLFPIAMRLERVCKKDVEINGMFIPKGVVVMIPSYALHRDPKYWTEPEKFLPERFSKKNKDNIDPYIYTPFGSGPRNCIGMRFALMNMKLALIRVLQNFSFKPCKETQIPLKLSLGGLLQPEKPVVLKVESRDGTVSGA

Structure (SMILES): CCCc1nn(C)c2c(=O)[nH]c(-c3cc(S(=O)(=O)N4CCNCC4)ccc3OCC)nc12 [DMS, N-desmethylsildenafil]
- in vitro formation kinetic intrinsic clearance (CLint) for DMS ([1]; CYP3A4, ref [18]): 0.733 μL/min/pmol CYP3A
- DMS AUC Ratio simulated/observed ([2]; 25 mg sildenafil single oral dose): 1.01
- DMS AUC Ratio simulated/observed ([2]; 50 mg sildenafil single oral dose): 0.94
- DMS AUC Ratio simulated/observed ([2]; 100 mg sildenafil single oral dose): 0.85
- DMS AUC Ratio simulated/observed ([2]; 200 mg sildenafil single oral dose): 0.79
- DMS AUC Ratio simulated/observed ([2]; sildenafil 25 mg/25-minute infusion i.v.): 1.87
- DMS AUC0-24 Fold Change observed [3]: 1.7
- fu, predominant plasma binding protein [4]: 0.04 (AAG)
- DMS AUC Observed ([5]; 25 mg sildenafil single oral dose, AUC0–∞, ref [47]): 147 ng·h/mL
- DMS AUC Observed ([5]; 50 mg sildenafil single oral dose, AUC0–∞, ref [47]): 328 ng·h/mL
- DMS AUC Observed ([5]; 100 mg sildenafil single oral dose, AUC0–∞, ref [47]): 776 ng·h/mL
- DMS AUC Observed ([5]; 200 mg sildenafil single oral dose, AUC0–∞, ref [47]): 1822 ng·h/mL
- DMS AUC Observed ([5]; sildenafil 25 mg/25-minute infusion i.v., AUC0–∞, ref [13]): 147 ng·h/mL
- in vitro formation kinetic intrinsic clearance (CLint) for DMS ([6]; CYP3A5, ref [18]): 0.788 μL/min/pmol CYP3A
- in vitro formation kinetic intrinsic clearance (CLint) for DMS ([7]; CYP3A7): 0.079 μL/min/pmol CYP3A
- Water solubility [8]: 419 µg/mL
- pKa [8]: 7.16

Structure (SMILES): OC(Cn1cncn1)(Cn1cncn1)c1ccc(F)cc1F [Fluconazole, fluconazole]
- Alpha ([9]; mixed model, value (90% CI)): 16.6 (6.1–178)
- Inhibition type ([9]; recombinant CYP3A4, testosterone probe): mixed competitive inhibitor
- KI uncompetitive ([9]; value (90% CI)): 83.1 (67.4–102.9) μM
- Ki ([10]; KI competitive, value (90% CI)): 70.8 µM
- Ki ([10]; KI global, net value of mixed model, value (90% CI), triplicates): 182 µM
- Alpha ([10]; mixed model, value (90% CI)): 2.6 (0.5–13.9)
- Inhibition type ([10]; recombinant CYP3A5, testosterone probe): mixed competitive inhibitor
- KI uncompetitive ([10]; value (90% CI)): 238.7 (183.2–318.9) μM
- Alpha ([11]; mixed model, value (90% CI)): 13.5 (1.8–∞)
- Inhibition type ([11]; recombinant CYP3A7, testosterone probe): mixed competitive inhibitor
- KI uncompetitive ([11]; value (90% CI)): 389.0 (266.7–610.3) μM

Structure (SMILES): CCCc1nn(C)c2c(=O)[nH]c(-c3cc(S(=O)(=O)N4CCN(C)CC4)ccc3OCC)nc12 [Sildenafil, sildenafil]
- Vmax CYP3A4 DMS ([1]; DMS formation, ref [27]): 1.00 pmol/min/pmol
- Km ([1]; read-out: KM CYP3A4 DMS, DMS formation, ref [27]): 15 µM
- unbound inhibition of in vitro phosphodiesterase type 5 activity ([12]; at steady-state Cmax 47 ng/mL): 53%
- unbound inhibition of in vitro phosphodiesterase type 5 activity ([12]; at steady-state Cmax 140 ng/mL): 77%
- unbound inhibition of in vitro phosphodiesterase type 5 activity ([12]; at steady-state Cmax 373 ng/mL): 90%
- fu, predominant plasma binding protein [4]: 0.04 (AAG)
- protein binding of sildenafil ([4]; infants, ref [20]): 93.9%
- efficacy of the low dose [13]: ineffective
- Sildenafil AUC Observed ([5]; 10 mg i.v. bolus, adults with pulmonary arterial hypertension, AUC0–τ (8 hours), ref [49]): 330 ng·h/mL
- Sildenafil AUC Observed ([5]; 25 mg single oral dose, healthy men, AUC0–∞, ref [47]): 361 ng·h/mL
- Sildenafil AUC Observed ([5]; 25 mg/25-minute infusion i.v., healthy adult men, AUC0–∞, ref [13]): 971 ng·h/mL
- Sildenafil AUC Observed ([5]; 50 mg single oral dose, healthy men, AUC0–∞, ref [47]): 738 ng·h/mL
- Sildenafil AUC Observed ([5]; 50 mg/50-minute infusion i.v., healthy men, AUC0–∞, ref [47]): 1291 ng·h/mL
- Sildenafil AUC Observed ([5]; 80 mg p.o. t.i.d. after 20 mg t.i.d. for 3 days, healthy men, AUC0–τ, ref [48]): 1720 ng·h/mL
- Sildenafil AUC Observed ([5]; 100 mg single oral dose, healthy men, AUC0–∞, ref [47]): 1685 ng·h/mL
- Sildenafil AUC Observed ([5]; 200 mg single oral dose, healthy men, AUC0–∞, ref [47]): 3755 ng·h/mL
- Sildenafil CL Observed ([5]; Healthy adults, PopPK, mean (inter-individual variability), ref [50]): 29.5 (31.2%)^d liters/hour
- Sildenafil Vss Observed ([5]; Healthy adults, PopPK, ref [50]): 107 (N/A)^d liters
- Sildenafil CL Observed ([5]; Patients with PAH, 10 mg i.v. bolus, ref [49]): 32.2 (N/A)^c liters/hour
- Sildenafil Vss Observed ([5]; Patients with PAH, reported as terminal phase volume (Vz), ref [49]): 137 (N/A)^c liters
- Km [14]: 15 µM
- decrease in sildenafil clearance by fluconazole ([15]; 11 infants 2–121 days old, 3 with fluconazole, nasogastric tube, ref [20]): 47%
- decrease in sildenafil CL by fluconazole ([15]; 34 preterm infants, 4 with fluconazole, ref [21]): 59%
- Km ([6]; read-out: KM CYP3A5 DMS, DMS formation, ref [27]): 14.7 µM
- Km ([7]; read-out: KM CYP3A7 DMS, DMS formation): 5.71 µM
- concentration of half-maximal effect, pulmonary vascular resistance [16]: 17 ng/mL
- concentration that produces the maximal effect, pulmonary vascular resistance [16]: around 100 ng/mL
- Vmax CYP2C9 DMS [17]: 78 pmol/min/mg
- Km ([17]; read-out: KM CYP2C9 DMS): 27 µM
- sildenafil clearance (CL) ([18]; 7 days of age, ref [19]): 2.58 L/h
- sildenafil clearance (CL) ([18]; day 1, ref [19]): 0.84 L/h
- Sildenafil CL Observed ([18]; Preterm infants, ref [21]): 27.8 (33.3%)^b,e liters/hour
- Sildenafil Vss Observed ([18]; Preterm infants, ref [21]): 144 (N/A)^b,e liters
- Sildenafil CL Observed ([18]; Term neonates, ref [19]): 24.7 (54.7%)^b,f liters/hour
- Sildenafil Vss Observed ([18]; Term neonates, ref [19]): 456 (N/A)^b,f liters
- Vss in full-term neonates, not scaled ([18]; full-term neonates, ref [20]): 22.4 L
- pKa [8]: 5.97

Reference: PMC8138939 (Clinical pharmacology and therapeutics, 2020)
